The record followed here is paper PMC4467156, “A new chemical inhibitor of angiogenesis and tumorigenesis that targets the VEGF signaling pathway upstream of Ras” (Oncotarget, 2015).

SMILES strings stand for the structures.

For assay [1], the system named is ERK1/2 phosphorylation. Nature of the assay: Western blot, ERK1/2 phosphorylation in HUVEC. It is filed as cell-based, human. As to the method:
Figure 9 Effect of COB223 on growth factor-induced VEGF-R2, MEK and ERK phosphorylations (A) Serum-starved HUVEC cells were incubated for 15 min in the presence of either 10 ng/mL VEGF-A or 20 ng/mL FGF-2 and in the absence or the presence of 25 μM COB223. The phosphorylations of VEGFR2 on tyrosine 1175 or tyrosine 1214, of MEK and ERK1/2 were then analyzed by Western blot analysis of the cell lysates as described in Material and Methods. Western blots for total VEGFR2, MEK and ERK1/2 were used as loading controls. The blots shown in Figure 9A were obtained in one representative experiment. (B) The hybridization signals observed in 5 similar but independent experiments were quantitated and the ratios between phospho-VEGFR2(Y1175) or (Y1214) and VEGFR2 signals were normalized to the value observed in the absence of COB223. (C) The hybridization signals observed in 5 similar but independent experiments were quantitated and the ratios between phospho-ERK1/2 and ERK1/2 and between phospho-MEK and MEK were normalized to the values observed in the absence of COB223. Additional experiments performed with 10% fetal calf serum (FCS) as a mitogen were included in this analysis. * : p < 0.05; ** : p < 0.01
Figure 10 Effect of PKC inhibitors on PMA-, VEGF- and FGF2-induced ERK phoshorylation (A) Serum-starved HUVEC cells were incubated for 15 min in the presence of 10 ng/mL VEGF-A or 20 ng/mL FGF-2 and in the absence or the presence of 25 μM COB223 or 5 μM Gö6983 and 5 μM Gö6976. The phosphorylation ERK1/2 was then analyzed by Western blot analysis of the cell lysates as described in Material and Methods. Western blots for total ERK1/2 were used as loading controls. (B) Serum-starved HUVEC cells were incubated for 5 min in the presence of 200 nM of PMA and in the absence or the presence of 25 μM COB223 or 5 μM Gö6983 and 5 μM Gö6976. The hybridization signals observed were quantitated and the ratio between phospho-ERK1/2 and ERK1/2 was normalized to the values observed in the absence of COB223. Similar results were obtained in 2 independent experiments.
Serum-starved HUVEC cells were incubated for 15 min in the presence of either 10 ng/mL VEGF-A or 20 ng/mL FGF-2 and in the absence or the presence of indicated concentration of COB223. COB223 was incubated 15 min prior to stimulation. Cells were lysed in RIPA buffer ( Tris HCl pH 7.4 10 mM, NaCl 150 mM, SDS 0.1%, Na Deoxycholate 0.5%, EDTA 1 mM, Triton X100 1% and protease inhibitor cocktail (Sigma) for protein extraction. After fractionation of proteins on a 4–15% SDS-PAGE gel and blotting to a nitrocellulose membrane, immunoblotting detection of proteins was done using indicated antibodies according to manufacturer's instruction.

Assay [2] has as its system embryoid bodies derived from mouse embryonic stem cells. Nature of the assay: Vascular sprouting of embryoid bodies into collagen gels. It is filed as cell-based. The conditions noted are these: 12.5 μM COB223 added at day 6. As to the method: CJ7 cells (1000 cells/well; 12-well plates) were allowed to differentiate in collagen gels in Iscove's medium containing Glutamax (Iscove's modified Dulbecco's medium; Invitrogen) supplemented with 1.2 mg/mL collagen I (BD Biosciences, Bedford, MA), 15% fetal calf serum (Invitrogen), 450 μM monothioglycerol (Sigma-Aldrich), 10 μg/mL insulin (Roche Diagnostics, Basel, Switzerland), 50 U/mL penicillin and 50 μg/mL streptomycin (Invitrogen), as previously described. A cocktail of growth factors was also added containing 50 ng/mL human VEGF-A (AbCys) and 100 ng/mL human FGF-2 (a generous gift from Dr. A. Baird, Whittier Institute, La Jolla, CA). At day 6, molecules were added with a novel addition of 50 ng/mL human VEGF-A and 100 ng/mL human FGF-2. Differentiation was allowed during 11 days.
Collagen gels containing EBs were dehydrated and fixed in 4% paraformaldehyde during 15 min at room temperature. […] For quantitation of endothelial sprouting, images were captured with a digital camera and measurement of the total length of endothelial sprouts was achieved by morphometric analysis using ImageJ software.

In assay [3] the target is PKCβII (Homo sapiens, UniProt P05771). Nature of the assay: In vitro kinase assay PKCβII. It is filed as biochemical. The following applies: concentrations up to 50 μM. As to the method: We first wondered whether COB223 required to be internalized to exert its biological effect. For this, we synthesized a covalent complex between BSA and COB223 and purified it. […] In vitro kinase assays were performed with a panel of purified protein-kinases involved in mitogenic signaling, including VEGFR2, FGFR1, FGFR2, PDGFRß, Met, Raf, MEK1, ERK1, ERK2, PKCα, PKCβI, PKCβII, PKCζ as indicated in Table 2. […] We then analyzed the effect of COB223 on VEGF-induced phosphorylations of VEGFR2, MEK and ERK1/2 (Figure 9). […] (Figure 9A, 9B). […] It was also specific of the p42/p44 MAP kinase pathway as activation of p38 MAP kinase phosphorylation in HUVEC cells by VEGF or serum was unaffected by COB223 (data not shown). The activation of src phosphorylation by VEGF in HUVECs was also unaffected by COB223 (data not shown).
PKCβII, sequence (P05771 1-673 isoform P05771-2): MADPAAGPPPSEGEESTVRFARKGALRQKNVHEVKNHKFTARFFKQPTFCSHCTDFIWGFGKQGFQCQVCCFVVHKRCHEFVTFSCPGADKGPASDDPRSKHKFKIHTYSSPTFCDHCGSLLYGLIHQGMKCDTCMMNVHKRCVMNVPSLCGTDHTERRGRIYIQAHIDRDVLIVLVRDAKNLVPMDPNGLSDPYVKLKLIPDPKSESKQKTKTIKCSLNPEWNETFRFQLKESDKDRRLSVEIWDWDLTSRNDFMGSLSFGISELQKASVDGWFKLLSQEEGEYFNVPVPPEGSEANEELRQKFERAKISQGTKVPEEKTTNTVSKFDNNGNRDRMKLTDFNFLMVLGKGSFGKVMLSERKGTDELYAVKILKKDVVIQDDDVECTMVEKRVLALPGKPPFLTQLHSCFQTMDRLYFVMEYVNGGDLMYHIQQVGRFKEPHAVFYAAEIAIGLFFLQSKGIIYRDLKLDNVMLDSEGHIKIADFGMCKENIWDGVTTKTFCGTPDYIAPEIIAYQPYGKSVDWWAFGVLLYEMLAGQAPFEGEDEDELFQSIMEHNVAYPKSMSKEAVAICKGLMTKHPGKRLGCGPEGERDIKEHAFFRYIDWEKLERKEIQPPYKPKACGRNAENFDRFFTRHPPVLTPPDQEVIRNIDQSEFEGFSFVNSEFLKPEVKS

For `CN(C)c1cccc2c(S(=O)(=O)NCCCN3CCN(CCCNC(=O)OC(C)(C)C)CC3)cccc12` [COB223, tert-Butyl 3-(4-(3-(5-(dimethylamino)naphthalene-1-sulfonamido)propyl)piperazin-1-yl) propylcarbamate], the “VEGF-induced phosphorylation of ERK1/2” value in assay [1] (HUVEC, 10 ng/mL VEGF-A 15 min, 25 μM COB223) is given as “significantly inhibited”. Moreover, the “phosphorylation of ERK1/2 induced by the PKC activator PMA” value in assay [1] (HUVEC, 200 nM PMA 5 min, 25 μM COB223) was “inhibited”. Moreover, in assay [1] (dose-response study), the “concentration at which inhibition of MAP kinase phosphorylation was detectable” value was 5 µM and the “concentration at which inhibition of MAP kinase phosphorylation was statistically significant” value amounted to 20 µM. In addition, the “endothelial sprouting (CD31 immunostaining)” value in assay [2] is reported as “complete inhibition”. The “kinase inhibition” value in assay [3] is given as “None of them was inhibited”.
